Source: US20260022142A1, “MACROCYCLIC IMMUNOMODULATORS” (Bristol-Myers Squibb Company, priority 2022, published 2026)
Bridge positions count the residues as written; N and C are the ends. Square brackets hold non-standard residues; d marks the D form. Peptide text beside a SMILES is read from it. * marks the point of attachment. ξ: configuration not given here. Bip = N[C@@H](Cc1ccc(-c2ccccc2)cc1)C(=O)O; Cha = N[C@@H](CC1CCCCC1)C(=O)O; Thr(3ξ) = CC(O)[C@H](N)C(=O)O; Carboxymethyl = O=C(O)C*; Orn = NCCC[C@H](N)C(=O)O; Aun = NCCCCCCCCCCC(=O)O; Dab = NCC[C@H](N)C(=O)O; Dap = NC[C@H](N)C(=O)O; AEEA = NCCOCCOCC(=O)O

Target: T1, PD-1/PD-L1 interaction (PE-labeled human PD-L1-Ig binding to Jurkat cell line over-expressing human PD-1) (Homo sapiens, UniProt Q15116)
T1 construct: expressed in transfected cells; host or cells: Jurkat
Assay: Jurkat-PD-1 Cell Binding High-Content Screening Assay (CBA)
Assay type: cell-based
Details: Jurkat cell line over-expressing human PD-1; PE-labeled PD-L1-Ig 20 nM final; read-out: Jurkat hPD1-PDL1 IC50
Summary of the method: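 Binding of fluorescent PD-L1-Ig (20 nM final) to Jurkat-PD-1 cells was measured by automated imaging after 1 h, following a 2 h compound pre-treatment at 37° C.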

T1 sequence (Q15116 25-288): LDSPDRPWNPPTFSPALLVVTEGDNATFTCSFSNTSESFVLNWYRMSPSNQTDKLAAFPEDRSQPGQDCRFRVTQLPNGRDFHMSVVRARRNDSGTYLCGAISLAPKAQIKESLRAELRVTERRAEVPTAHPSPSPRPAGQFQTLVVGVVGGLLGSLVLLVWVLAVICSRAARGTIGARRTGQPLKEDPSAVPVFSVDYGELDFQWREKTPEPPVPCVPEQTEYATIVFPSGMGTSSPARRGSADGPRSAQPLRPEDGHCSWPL

Structure (SMILES) | IC50 [nM]
CC(C)C[C@@H]1NC(=O)[C@H](Cc2c[nH]c3ccccc23)NC(=O)[C@H](CC(=O)O)NC(=O)[C@H](Cc2ccc(OCC(=O)O)cc2)NC(=O)[C@H](CN)NC(=O)CSC[C@@H](C(=O)N[C@@H](CCN)C(=O)NCCCCCCCCCCC(=O)O)NC(=O)[C@H](CCN)NC(=O)[C@H](C(C)O)NC(=O)[C@H](CC2CCCCC2)NC(=O)[C@H](CCN)NC(=O)[C@@H](CC(C)C)NC(=O)[C@H](CCCN)NC(=O)[C@H](Cc2ccc(O)cc2)NC(=O)[C@H](Cc2ccc(-c3ccccc3)cc2)NC1=O (stereo partly drawn) [Compound 3681] ({CH2CO}-[Dap]Y(Carboxymethyl)DWL[Bip]Y[Orn][dL][Dab][Cha][Thr(3ξ)][Dab]C[Dab][Aun]-OH; thioether N-14) | 71.7
CC(C)C[C@@H]1NC(=O)[C@H](Cc2c[nH]c3ccccc23)NC(=O)[C@H](CC(=O)O)NC(=O)[C@H](Cc2ccc(OCC(=O)O)cc2)NC(=O)[C@H](CN)NC(=O)CSC[C@@H](C(=O)N[C@@H](CCN)C(=O)NCCCCCCCCCCC(=O)O)NC(=O)[C@H](CCCN)NC(=O)[C@H](C(C)O)NC(=O)[C@H](CC2CCCCC2)NC(=O)[C@H](CCN)NC(=O)[C@@H](CC(C)C)NC(=O)[C@H](CCCN)NC(=O)[C@H](Cc2ccc(O)cc2)NC(=O)[C@H](Cc2ccc(-c3ccccc3)cc2)NC1=O (stereo partly drawn) [Compound 3682] ({CH2CO}-[Dap]Y(Carboxymethyl)DWL[Bip]Y[Orn][dL][Dab][Cha][Thr(3ξ)][Orn]C[Dab][Aun]-OH; thioether N-14) | 51.4
CC(C)C[C@@H]1NC(=O)[C@H](Cc2c[nH]c3ccccc23)NC(=O)[C@H](CC(=O)O)NC(=O)[C@H](Cc2ccc(OCC(=O)O)cc2)NC(=O)[C@H](C(C)O)NC(=O)CSC[C@@H](C(=O)N[C@@H](CCN)C(=O)NCCCCCCCCCCC(=O)O)NC(=O)[C@H](CCN)NC(=O)[C@H](C(C)O)NC(=O)[C@H](CC2CCCCC2)NC(=O)[C@H](CCN)NC(=O)[C@@H](CC(C)C)NC(=O)[C@H](CCCN)NC(=O)[C@H](Cc2ccc(O)cc2)NC(=O)[C@H](Cc2ccc(-c3ccccc3)cc2)NC1=O (stereo partly drawn) [Compound 3683] ({CH2CO}-[Thr(3ξ)]Y(Carboxymethyl)DWL[Bip]Y[Orn][dL][Dab][Cha][Thr(3ξ)][Dab]C[Dab][Aun]-OH; thioether N-14) | 118
CC(C)C[C@@H]1NC(=O)[C@H](Cc2c[nH]c3ccccc23)NC(=O)[C@H](CC(=O)O)NC(=O)[C@H](Cc2ccc(OCC(=O)O)cc2)NC(=O)[C@H](C(C)O)NC(=O)CSC[C@@H](C(=O)N[C@@H](CCN)C(=O)NCCCCCCCCCCC(=O)O)NC(=O)[C@H](CCCN)NC(=O)[C@H](C(C)O)NC(=O)[C@H](CC2CCCCC2)NC(=O)[C@H](CCN)NC(=O)[C@@H](CC(C)C)NC(=O)[C@H](CCCN)NC(=O)[C@H](Cc2ccc(O)cc2)NC(=O)[C@H](Cc2ccc(-c3ccccc3)cc2)NC1=O (stereo partly drawn) [Compound 3684] ({CH2CO}-[Thr(3ξ)]Y(Carboxymethyl)DWL[Bip]Y[Orn][dL][Dab][Cha][Thr(3ξ)][Orn]C[Dab][Aun]-OH; thioether N-14) | 77.1
CC(C)C[C@@H]1NC(=O)[C@H](Cc2c[nH]c3ccccc23)NC(=O)[C@H](CC(=O)O)NC(=O)[C@H](Cc2ccc(OCC(=O)O)cc2)NC(=O)[C@H](CN)NC(=O)CSC[C@@H](C(=O)N[C@@H](CCN)C(=O)NCCCCCCCCCCC(=O)O)NC(=O)[C@H](CO)NC(=O)[C@H](C(C)O)NC(=O)[C@H](CC2CCCCC2)NC(=O)[C@H](CCN)NC(=O)[C@@H](CC(C)C)NC(=O)[C@H](CCCN)NC(=O)[C@H](C(C)C)NC(=O)[C@H](Cc2ccc(-c3ccccc3)cc2)NC1=O (stereo partly drawn) [Compound 3685] ({CH2CO}-[Dap]Y(Carboxymethyl)DWL[Bip]V[Orn][dL][Dab][Cha][Thr(3ξ)]SC[Dab][Aun]-OH; thioether N-14) | 30.2
CC(C)C[C@@H]1NC(=O)[C@H](Cc2c[nH]c3ccccc23)NC(=O)[C@H](CC(=O)O)NC(=O)[C@H](Cc2ccc(OCC(=O)O)cc2)NC(=O)[C@H](C(C)O)NC(=O)CSC[C@@H](C(=O)N[C@@H](CCN)C(=O)NCCCCCCCCCCC(=O)O)NC(=O)[C@H](CCCN)NC(=O)[C@H](C(C)O)NC(=O)[C@H](CC2CCCCC2)NC(=O)[C@H](CCN)NC(=O)[C@@H](CC(C)C)NC(=O)[C@H](CCCN)NC(=O)[C@H](C(C)C)NC(=O)[C@H](Cc2ccc(-c3ccccc3)cc2)NC1=O (stereo partly drawn) [Compound 3686] ({CH2CO}-[Thr(3ξ)]Y(Carboxymethyl)DWL[Bip]V[Orn][dL][Dab][Cha][Thr(3ξ)][Orn]C[Dab][Aun]-OH; thioether N-14) | 27.6
CC(C)C[C@@H]1NC(=O)[C@H](Cc2c[nH]c3ccccc23)NC(=O)[C@H](CC(=O)O)NC(=O)[C@H](Cc2ccc(OCC(=O)O)cc2)NC(=O)[C@H](CN)NC(=O)CSC[C@@H](C(=O)N[C@@H](CCN)C(=O)NCCCCCCCCCCC(=O)O)NC(=O)[C@H](CCCN)NC(=O)[C@H](C(C)O)NC(=O)[C@H](CC2CCCCC2)NC(=O)[C@H](CCN)NC(=O)[C@@H](CC(C)C)NC(=O)[C@H](CCCN)NC(=O)[C@H](C(C)C)NC(=O)[C@H](Cc2ccc(-c3ccccc3)cc2)NC1=O (stereo partly drawn) [Compound 3687] ({CH2CO}-[Dap]Y(Carboxymethyl)DWL[Bip]V[Orn][dL][Dab][Cha][Thr(3ξ)][Orn]C[Dab][Aun]-OH; thioether N-14) | 19.9
CC(C)C[C@@H]1NC(=O)[C@H](Cc2c[nH]c3ccccc23)NC(=O)[C@H](CC(=O)O)NC(=O)[C@H](Cc2ccc(OCC(=O)O)cc2)NC(=O)[C@H](CN)NC(=O)CSC[C@@H](C(=O)N[C@@H](CCN)C(=O)NCCCCCCCCCCC(=O)O)NC(=O)[C@H](Cc2cnc[nH]2)NC(=O)[C@H](C(C)C)NC(=O)[C@H](CC2CCCCC2)NC(=O)[C@H](CCN)NC(=O)[C@@H](CC(C)C)NC(=O)[C@H](CCCN)NC(=O)[C@H](C(C)C)NC(=O)[C@H](Cc2ccc(-c3ccccc3)cc2)NC1=O [Compound 3688] ({CH2CO}-[Dap]Y(Carboxymethyl)DWL[Bip]V[Orn][dL][Dab][Cha]VHC[Dab][Aun]-OH; thioether N-14) | 17.3
CC(C)C[C@@H]1NC(=O)[C@H](Cc2c[nH]c3ccccc23)NC(=O)[C@H](CC(=O)O)NC(=O)[C@H](Cc2ccc(OCC(=O)O)cc2)NC(=O)[C@H](CN)NC(=O)CSC[C@@H](C(=O)N[C@@H](CCN)C(=O)NCCCCCCCCCCC(=O)O)NC(=O)[C@H](Cc2cnc[nH]2)NC(=O)[C@H](C(C)O)NC(=O)[C@H](CC2CCCCC2)NC(=O)[C@H](CCN)NC(=O)[C@@H](CC(C)C)NC(=O)[C@H](CCCN)NC(=O)[C@H](C(C)C)NC(=O)[C@H](Cc2ccc(-c3ccccc3)cc2)NC1=O (stereo partly drawn) [Compound 3689] ({CH2CO}-[Dap]Y(Carboxymethyl)DWL[Bip]V[Orn][dL][Dab][Cha][Thr(3ξ)]HC[Dab][Aun]-OH; thioether N-14) | 29.9
CC(C)C[C@@H]1NC(=O)[C@H](Cc2c[nH]c3ccccc23)NC(=O)[C@H](CC(=O)O)NC(=O)[C@H](Cc2ccc(OCC(=O)O)cc2)NC(=O)[C@H](C(C)O)NC(=O)CSC[C@@H](C(=O)N[C@@H](CCN)C(=O)NCCCCCCCCCCC(=O)O)NC(=O)[C@H](Cc2cnc[nH]2)NC(=O)[C@H](C(C)O)NC(=O)[C@H](CC2CCCCC2)NC(=O)[C@H](CCN)NC(=O)[C@@H](CC(C)C)NC(=O)[C@H](CCCN)NC(=O)[C@H](C(C)C)NC(=O)[C@H](Cc2ccc(-c3ccccc3)cc2)NC1=O (stereo partly drawn) [Compound 3690] ({CH2CO}-[Thr(3ξ)]Y(Carboxymethyl)DWL[Bip]V[Orn][dL][Dab][Cha][Thr(3ξ)]HC[Dab][Aun]-OH; thioether N-14) | 38.8
CC(C)C[C@@H]1NC(=O)[C@H](Cc2c[nH]c3ccccc23)NC(=O)[C@H](CC(=O)O)NC(=O)[C@H](Cc2ccc(OCC(=O)O)cc2)NC(=O)[C@H](C(C)O)NC(=O)CSC[C@@H](C(=O)NCCOCCOCC(=O)NCCCCCCCCCCC(=O)O)NC(=O)[C@H](Cc2cnc[nH]2)NC(=O)[C@H](C(C)O)NC(=O)[C@H](CC2CCCCC2)NC(=O)[C@H](CCN)NC(=O)[C@@H](CC(C)C)NC(=O)[C@H](CCCN)NC(=O)[C@H](C(C)C)NC(=O)[C@H](Cc2ccc(-c3ccccc3)cc2)NC1=O (stereo partly drawn) [Compound 3691] ({CH2CO}-[Thr(3ξ)]Y(Carboxymethyl)DWL[Bip]V[Orn][dL][Dab][Cha][Thr(3ξ)]HC[AEEA][Aun]-OH; thioether N-14) | 71.3
CC(C)C[C@@H]1NC(=O)[C@H](Cc2c[nH]c3ccccc23)NC(=O)[C@H](CC(=O)O)NC(=O)[C@H](Cc2ccc(OCC(=O)O)cc2)NC(=O)[C@H](CN)NC(=O)CSC[C@@H](C(=O)NCCOCCOCC(=O)NCCCCCCCCCCC(=O)O)NC(=O)[C@H](Cc2cnc[nH]2)NC(=O)[C@H](C(C)O)NC(=O)[C@H](CC2CCCCC2)NC(=O)[C@H](CCN)NC(=O)[C@@H](CC(C)C)NC(=O)[C@H](CCCN)NC(=O)[C@H](C(C)C)NC(=O)[C@H](Cc2ccc(-c3ccccc3)cc2)NC1=O (stereo partly drawn) [Compound 3692] ({CH2CO}-[Dap]Y(Carboxymethyl)DWL[Bip]V[Orn][dL][Dab][Cha][Thr(3ξ)]HC[AEEA][Aun]-OH; thioether N-14) | 58.4
CC(C)C[C@@H]1NC(=O)[C@H](Cc2c[nH]c3ccccc23)NC(=O)[C@H](CC(=O)O)NC(=O)[C@H](Cc2ccc(OCC(=O)O)cc2)NC(=O)[C@H](CN)NC(=O)CSC[C@@H](C(=O)N[C@@H](CCN)C(=O)NCCCCCCCCCCC(=O)O)NC(=O)[C@H](CCCCN)NC(=O)[C@H](C(C)O)NC(=O)[C@H](CC2CCCCC2)NC(=O)[C@H](CCN)NC(=O)[C@@H](CC(C)C)NC(=O)[C@H](CCCN)NC(=O)[C@H](Cc2ccc(O)cc2)NC(=O)[C@H](Cc2ccc(-c3ccccc3)cc2)NC1=O (stereo partly drawn) [Compound 3693] ({CH2CO}-[Dap]Y(Carboxymethyl)DWL[Bip]Y[Orn][dL][Dab][Cha][Thr(3ξ)]KC[Dab][Aun]-OH; thioether N-14) | 59.8
